For data set [1], the target named is partially purified rat brain PKC. In words: Mixed micellular protein kinase C (PKC) assay. Format: biochemical. As to conditions: for IC50: histone III-S substrate, 23°C, 15 min, 2% DMSO; for MLCK/PKC: selectivity, ratio of IC50 MLCK to IC50 PKC. The method, then:
(§1) The below listed Test Methods A and B were run in accordance with the procedures described in Bishop, W.R., Petrin, J., Wang, L., Ramesh, U., and Doll, R.J. (1990) Biochemical Pharmacology, Vol. 40,2129-2135 and Hannun et al. J. Biol. Chem. (1985), Vol. 260, 10039-10043, which are herein incorporated by reference with the following modifications.
A. Protein Kinase C ("PKC") Protocol
Mixed micellular protein kinase C assays were conducted in accordance with the methods described in the two articles cited just above (namely, Bishop et al, and Hannun et al), in a reaction mixture (0.25 mL total volume) containing: 20 mM Tris-HCl (pH 7.5); […] histone III-S; 10 mM MgCl₂; 5 mM [g-32P]ATP (4 x 10^6 cpm/mmol); 200 mM CaCl₂; 32 mg/mL of phosphatidylserine; 1.6 mg/mL of 1-oleoyl-2-acetylglycerol and various concentrations of compounds of this invention added from a dimethyl-sulfoxide (DMSO) stock solution. The final concentration of DMSO in the reaction was 2% w/v. Reactions were started by addition of approximately […] of partially purified rat brain PKC and allowed to proceed at 23°C for 15 min. Reactions were terminated by collection of trichloroacetic acid-precipitated phosphorylated histone on GF/C filters using a Brandel Cell Harvester (Model No. M-24-R).

Data set [2] relates to Normal Human Epidermal Keratinocyte (NHEK) Cultures. In words: Inhibition of spontaneous and induced cornified envelope (CE) formation in NHEK cultures. On the set-up: CE formation induced by high calcium-containing media: unit of the concentration uncertain. In kind it is cell-based. As to conditions: for CE formation induced by high calcium-containing media: 1.6 mM Ca+2 media. The method, then:
C. Inhidition of Spontaneous and Induced Cornified Envelope ("CE") Formation in Normal Human Epidermal Keratinocyte (NHEK) Cultures.
The data was collected in cultured NHEK cells which were grown in serum-free media to subconflurncy and then treated with DMSO (vehicle control) or various concentration of the compounds of this invention, etretinate (an antipsoriatic aromatic analog of retinoic acid) and staurosporine.
After 15 minutes, the NHEK cells were treated with DMSO (vehicle control), […] of 12-tetradecanoyl-phorbol-13-acetate ("TPA") to evaluate TPA-induced CE formation. In another experiment, the NHEK cells were refed media containing 0.15 mM Ca⁺² (control) or a high calcium-containing media, i.e., a 1.6 mM Ca⁺² media to induce CE formation by such a high calcium-containing media. After 48 hours, the cells so-treated were harvested and viable and total cells were counted. Cornified envelopes were assessed after resuspending cells pellets in buffer containing sodium dodecyl sulfate ("SDS") and dithiothreitol ("DTT"). CE formation induced by TPA or high calcium-containing media was expressed as CE/viable cells and each treatment group was compared to its appropriate control group.

Data set [3] concerns the target Myosin light chain kinase (MLCK) (Homo sapiens, UniProt Q15746). Kind of data set: Myosin light chain kinase (MLCK) assay. As to conditions: MLCK substrate peptide, 10 nM calmodulin, 10 minutes. Format: biochemical. As to the method: as §1
B. Myosin Light Chain Kinase ("MLCK") Protocol
Myosin light chain kinase (MLCK) assays were conducted in accordance with the methods of the Bishop et al. and Hannun et al. articles listed above in a reaction mixture containing 30 mM MLCK substrate peptide (Lys-Lys-Arg-Pro-Gln-Arg-Ala-Thr-Ser-Asn-Val-Phe-Ser-NH₂), 10 nM calmodulin, 25 mM [g-32P]ATP; 0.1 mM Ca⁺² acetate and 10 mM Mg⁺² acetate. Reactions were stopped after 10 minutes by addition of […] of 375 mM H₃PO₄ and spotting on phosphocellulose P81 paper.

[4] abbreviates: concentration of <10 mM, NHEK cells.

Results on four molecules are retold here after patent EP0540185A1, “4'-(N-substituted-N-oxide)staurosporine derivatives” (SCHERING CORPORATION, priority 1991, dated 1993).

Each structure is given as a SMILES string.

Myosin light chain kinase (MLCK), sequence (Q15746 whole entry): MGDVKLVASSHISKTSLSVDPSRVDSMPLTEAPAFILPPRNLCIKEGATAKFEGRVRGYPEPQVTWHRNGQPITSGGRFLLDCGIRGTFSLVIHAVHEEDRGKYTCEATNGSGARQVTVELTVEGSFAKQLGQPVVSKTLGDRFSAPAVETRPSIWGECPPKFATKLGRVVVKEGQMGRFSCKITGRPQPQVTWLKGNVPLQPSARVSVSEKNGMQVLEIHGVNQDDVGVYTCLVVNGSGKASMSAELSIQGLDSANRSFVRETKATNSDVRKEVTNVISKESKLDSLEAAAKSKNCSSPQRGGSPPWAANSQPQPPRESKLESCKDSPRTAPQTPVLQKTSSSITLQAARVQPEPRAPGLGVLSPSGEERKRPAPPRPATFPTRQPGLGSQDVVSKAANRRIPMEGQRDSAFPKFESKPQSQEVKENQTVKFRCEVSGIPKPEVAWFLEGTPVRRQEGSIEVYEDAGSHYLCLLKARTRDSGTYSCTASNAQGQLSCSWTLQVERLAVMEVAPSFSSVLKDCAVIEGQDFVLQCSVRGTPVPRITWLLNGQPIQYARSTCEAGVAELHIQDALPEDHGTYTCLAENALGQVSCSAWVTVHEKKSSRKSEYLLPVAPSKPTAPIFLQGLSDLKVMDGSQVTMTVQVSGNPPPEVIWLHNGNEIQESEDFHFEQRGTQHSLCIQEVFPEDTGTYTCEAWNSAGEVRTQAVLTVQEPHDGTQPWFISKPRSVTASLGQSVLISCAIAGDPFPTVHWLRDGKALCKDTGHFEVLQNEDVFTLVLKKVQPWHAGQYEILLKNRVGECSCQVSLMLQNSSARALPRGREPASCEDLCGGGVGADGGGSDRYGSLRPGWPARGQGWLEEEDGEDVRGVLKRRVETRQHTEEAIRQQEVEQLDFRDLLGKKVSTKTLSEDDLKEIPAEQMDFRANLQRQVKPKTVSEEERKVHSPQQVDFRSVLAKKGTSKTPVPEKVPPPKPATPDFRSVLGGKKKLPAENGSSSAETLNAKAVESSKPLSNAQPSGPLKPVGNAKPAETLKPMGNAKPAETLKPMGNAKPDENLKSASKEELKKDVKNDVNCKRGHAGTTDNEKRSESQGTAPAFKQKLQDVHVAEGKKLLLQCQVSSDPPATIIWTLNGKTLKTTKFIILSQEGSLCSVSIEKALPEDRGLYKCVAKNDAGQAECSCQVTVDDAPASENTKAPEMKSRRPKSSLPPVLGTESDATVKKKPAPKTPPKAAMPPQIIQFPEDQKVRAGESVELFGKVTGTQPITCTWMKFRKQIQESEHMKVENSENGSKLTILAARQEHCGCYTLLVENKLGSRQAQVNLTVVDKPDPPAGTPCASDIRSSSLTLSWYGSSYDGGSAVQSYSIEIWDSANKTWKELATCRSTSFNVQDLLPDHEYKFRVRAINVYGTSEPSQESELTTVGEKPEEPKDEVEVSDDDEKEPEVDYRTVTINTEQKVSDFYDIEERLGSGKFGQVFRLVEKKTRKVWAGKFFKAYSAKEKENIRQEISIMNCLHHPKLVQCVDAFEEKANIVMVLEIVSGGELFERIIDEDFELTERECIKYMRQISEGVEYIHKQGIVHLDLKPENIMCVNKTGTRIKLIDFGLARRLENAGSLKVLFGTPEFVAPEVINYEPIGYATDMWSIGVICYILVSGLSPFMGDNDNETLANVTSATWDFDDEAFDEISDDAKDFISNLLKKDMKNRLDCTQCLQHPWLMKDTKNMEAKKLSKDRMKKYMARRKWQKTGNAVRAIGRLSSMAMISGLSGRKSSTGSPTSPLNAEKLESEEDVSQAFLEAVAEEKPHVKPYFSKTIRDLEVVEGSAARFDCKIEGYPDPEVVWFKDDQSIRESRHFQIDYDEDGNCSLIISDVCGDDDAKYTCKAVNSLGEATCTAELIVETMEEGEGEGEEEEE

Usually IC50 stands for the concentration needed to halve the response being measured. Regarding `COC1C([N+](C)([O-])Cc2ccccc2)CC2OC1(C)n1c3ccccc3c3c4c(c5c6ccccc6n2c5c31)C(=O)NC4` (stereo not drawn) [Example 11, 4′-N-benzyl-N-oxide of staurosporine], the IC50 in data set [1] worked out at 33 nM; in data set [3], 55 nM. Also, the MLCK/PKC in data set [1] came to 16.7. In addition, the “CE formation induced by high calcium-containing media” value in data set [2] (500 (unit uncertain) concentration, NHEK cells, 48 hours) was determined as 71%; in data set [2] (1000 (unit uncertain) concentration, NHEK cells, 48 hours) it was 74%. Moreover, the “TPA-induced CE formation” value in data set [2] (concentration of 250 mM, TPA-treated NHEK cells, 48 hours) is “antagonizes”.

With `CCOC(=O)/C=C(C)/C=C/C=C(C)/C=C/c1c(C)cc(OC)c(C)c1C` [etretinate, reference compound], the “cornified envelope formation / keratinocyte cornification” value in data set [2] (human keratinocytes, no concentration given) is on record as “inhibition of keratinocyte cornification”.

Consider `COC1C([N+](C)(C)[O-])CC2OC1(C)n1c3ccccc3c3c4c(c5c6ccccc6n2c5c31)C(=O)NC4` (stereo not drawn) [Example 1, 4′ N-methyl-N-oxide of staurosporine], for which, in data set [1], 3.1 nM corresponded to half-maximal inhibition (IC50) and the MLCK/PKC is given as 11. Also, half-maximal inhibition in data set [3] (IC50) was put at 34 nM.

In the case of `CN[C@@H]1C[C@H]2O[C@@](C)([C@@H]1OC)n1c3ccccc3c3c4c(c5c6ccccc6n2c5c31)C(=O)NC4` [Staurosporine, staurosporine], in data set [2] (setting [4]), the CE formation entry was “potently inhibited” and the cytotoxicity result is reported as “cytotoxicity was observed”.
